The text below walks through data of ChEMBL document CHEMBL1914361, “Shishicrellastatins, inhibitors of cathepsin B, from the marine sponge Crella (Yvesia) spinulata” (Bioorg Med Chem, 2011).

The target in this assay is Cathepsin B (Bos taurus, UniProt P07688). In words: Inhibition of bovine cathepsin B after 1 hr by fluorescence assay.

pIC50: −log10 of the molar value.

As a reminder, the pIC50 is the IC50 on a negative log10 scale, so that one unit is a factor of ten. A lower pIC50 goes with a large IC50. `C[C@H]([C@@H]1C[C@H]2C[C@](C)(OC2(C)C)[C@@H](CC[C@@H](C)[C@H]2CC[C@H]3C4=C(CC[C@]23C)[C@@]2(C)C[C@H](OS(=O)(=O)O)[C@@H](OS(=O)(=O)O)[C@H](C)C2=CC4)O1)[C@H]1CC[C@H]2C3=C(CC[C@]12C)[C@]12CC[C@](O)(OC1)[C@@H](C)[C@@H]2[C@@H](OS(=O)(=O)O)C3` [SHISHICRELLASTATIN A] gave a pIC50 of 5.17.
`C[C@H]([C@@H]1C[C@H]2C[C@](C)(OC2(C)C)[C@@H](CC[C@@H](C)[C@H]2CC=C3C4=C(CC[C@@]32C)[C@@]2(C)C[C@H](OS(=O)(=O)O)[C@@H](OS(=O)(=O)O)[C@H](C)C2=CC4)O1)[C@H]1CC[C@H]2C3=C(CC[C@]12C)[C@]12CC[C@](O)(OC1)[C@@H](C)[C@@H]2[C@@H](OS(=O)(=O)O)C3` [SHISHICRELLASTATIN B] gave a pIC50 of 5.17.
